According to patent US20250041317A1, “NEUROACTIVE STEROID FOR THE TREATMENT OF HUNTINGTON'S DISEASE” (SAGE THERAPEUTICS, INC., priority 2021, published 2025):

What was measured:
[1] = test system: Patients with HD; assay: Tests of executive functioning (Cogstate Battery); format: in vivo, human; conditions: 1 mg, FIGS. 1-4
From the text: (§1) Additional objectives included an assessment of changes in subject performance on cognitive tasks.
(§2) Cogstate Battery was used to assess cognitive functioning, such as attention, working memory, information processing speed, executive function, and motor skills, and consists of the Stop Signal Reaction Test (STOP), Detection Task (DET), Identification Task (IDN), One Back Learning Task (ONB), Two Back Learning Task (TWOB), and Groton Maze Learning Test (GML).
(§3) The endpoints for each Cogstate Battery tests are change from baseline scores at each post-baseline assessment.

[2] = Phase 1 MAD study: safety and tolerability of Compound 1 Oral Solution
From the text: Subjects were assigned sequentially to one of 3 cohorts. […] Cohorts 1 and 2 were divided into 4 sub-groups of 3 subjects. Each sub-group in Part A started dosing on Day 1 over the course of 4 consecutive days, with the remaining dosing days overlapping in a staggered fashion. A maximum of 3 Part A subjects per calendar day per site will begin treatment at Day 1.
The Screening Period began with the signing of the informed consent form (ICF) at the Screening Visit. An optional genetic sample was collected during screening. On Day −2 (Part A) or Day −1 (Part B), qualified subjects were admitted to the unit. Subjects were discharged from the unit on Day 17 after completion of all assessments, provided that the Investigator was satisfied that it is safe for the subject to be discharged. In total, the inpatient stay for Part A subjects was approximately 19 days, and approximately 18 days for Part B subjects. Subjects returned for a Follow-up Visit on Day 21 (±2 days), approximately one week after the end of treatment.

[3] = test system: subjects with early manifest Huntington's disease; assay: Cogstate Two Back Test (TWOB), working memory; format: in vivo, human; conditions: HD Subjects (Part B), 1 mg
From the text: (§4) Sentinel dosing of subjects was employed for Cohort 3.
as §2, §3
(§5) Mean change from baseline scores at all post-baseline assessments were analyzed using mixed-effect repeated measure model (MMRM); with dose, visit, interaction between dose and visit as fixed effects, baseline as a covariate and subject as random effect. Unstructured covariance structure was used to model the variance-covariance matrix of the repeated measurements. If estimation issues arose during construction of covariance structure, compound symmetry was used in place of unstructured. The least square (LS) means differences between dose groups and placebo at each post baseline timepoint were estimated along with 95% confidence intervals.

[4] = test system: subjects with early manifest Huntington's disease; assay: Cogstate Groton Maze Learning Test (GML), executive function; format: in vivo, human; conditions: HD Subjects (Part B), 1 mg, all timepoints except for day 4
From the text: as §4, §2, §3, §5

[5] = test system: Patients with Huntington's Disease; assay: Assessment of psychomotor speed (Psychomotor Vigilance Task Test, FIG. 5); format: in vivo, human; conditions: patients with HD, 1 mg
From the text: FIG. 5 depicts performance measured using the Psychomotor Vigilance Task Test in Patients with Huntington's Disease and Healthy Participants. Z-Transformed Change from Baseline to Day 14 (Mean±SE) is depicted.
as §1

[6] = healthy adults (0.5 mg or 1.0 mg) and subjects with early manifest HD, multiple oral doses

## C[C@H](CC[C@](C)(O)C(F)(F)F)[C@H]1CC[C@H]2[C@@H]3CC=C4C[C@@](C)(O)CC[C@]4(C)[C@H]3CC[C@]12C [Compound 1]
[1]
  Change from baseline on tests of executive functioning: improvements from baseline
[2]; Part B, subjects with HD
  TEAEs in Part B: No TEAEs were reported
[2]; [6]
  Deaths: No deaths were reported
  Serious AEs: No serious AEs were reported
  TEAEs leading to study withdrawal or treatment discontinuation: No TEAEs leading to study withdrawal or treatment discontinuation were reported
[2]; measured by C-SSRS
  Suicidal ideation or suicidal behavior compared to baseline, C-SSRS: no signals for increased suicidal ideation or suicidal behavior
[3]; Days 8-14, threshold p<0.05
  Performance on the two-back test vs baseline, statistical significance: significant improvement compared to baseline
[3]; all timepoints after baseline
  Performance on the two-back test vs baseline: improvement in performance
[4]
  Performance in the GML test vs baseline: improvement
[5]
  Change from baseline on assessment of psychomotor speed: No changes from baseline were observed
